Test system: Normal Human Astrocytes (NHA)
Assay: Long-term culturing of human astrocytes using medium containing inhibitor (Example 1)
Assay type: cell-based
Conditions: for Number of days up to day of final passage / Passage number: NHA, 41 days of culturing, Y 10 μM, A 0.5 μM
Procedure: Long-term culturing of human astrocytes was performed using the following materials, reagents, and products for culturing.
• Normal Human Astrocytes (NHA) (CC-2565, Lonza Group AG)
• Culture medium: AGM Astrocyte Growth Medium Bullet Kit (CC-3186, Lonza Group AG) (composition of AGM: basal medium, FBS (3% (v/v)), L-glutamine, ascorbic acid, hEGF, insulin, and antibiotic) • Inhibitor Y: CultureSure (registered trademark) Y-27632 (034-24024, FUJIFILM Wako Pure Chemical Corporation), final concentration: 10 μM • Inhibitor A: CultureSure (registered trademark) A-83-01(035-24113, FUJIFILM Wako Pure Chemical Corporation), final concentration: 0.5 μM • Cell detachment agent: Accutase (AT104, Innovative Cell Technologies, Inc.) • Cell buffer: phosphate buffered saline (Dulbecco's formula; without calcium and magnesium) (BNDSBN200, KAC Co., Ltd.) • Medium for cell freezing: CELLBANKER 1 (CB011 TaKaRa Bio Inc. (NIPPON ZENYAKU KOGYO CO., LTD.)) • Cell culturing dish 60 mm (150462, Thermo Fisher Scientific Inc.) • Cell culturing dish 100 mm (150466, Thermo Fisher Scientific Inc.) • Cell culturing dish 150 mm (150468, Thermo Fisher Scientific Inc.) • Stericup Quick Release-GP Sterile Vacuum Filtration System (S2GPU02RE, Merck Millipore) • Inhibitor-free medium for culture supernatant collection: Dulbecco's Modied Eagle Medium (DMEM) (C11995500CP, Gibco (registered trademark), Thermo Fisher Scientific Inc.) and N-2 Supplement (x100) (17502-048, Gibco (registered trademark), Thermo Fisher Scientific Inc.)
The long-term culturing was performed in accordance with the following procedure. A frozen tube of the human astrocyte cells (NHA) was thawed in a water bath at 37° C. Next, the lysed cells were transferred to the culture medium so that the total volume was 10 mL and subjected to centrifugation at 180×g for 3 minutes at room temperature, and then the medium was removed. The cells were divided into 4 groups; a group to which only the inhibitor Y was added (hereinafter, the NHA-Y group), a group to which only the inhibitor A was added (hereinafter, the NHA-A group), a group to which the inhibitor Y and the inhibitor A were added (hereinafter, the NHA-YA group), and a group to Ih no inhibitor was added (normal group).
The medium was replaced every other day or every two days with fresh culture medium containing each inhibitor (or not containing any inhibitor). When the confluency reached 80 to 90%, the cells were detached using the cell detachment agent, and the cells were suspended in the culture medium containing each inhibitor (or not containing any inhibitor) and passaged into a 6-well plate at a seeding density of 4.2×10^3 cells/cm^2. While continuing the passaging, the culturing was performed for 41 days in the culture medium containing each inhibitor (or not containing any inhibitor).
The cell passage number and the number of days up to the day of final passage in each group are indicated in the following Table 1, and the correlations between the number of culturing days and the total number of cells are indicated in Table 2.

Row | Structure (SMILES) | Number of days up to day of final passage [days] | Passage number [times] | Number of cells (culturing day 0) | Number of cells (culturing day 5) | Number of cells (culturing day 8) | Number of cells (culturing day 13) | Number of cells (culturing day 19) | Number of cells (culturing day 29) | Number of cells (culturing day 15) | Number of cells (culturing day 23) | Number of cells (culturing day 30)
1 | C[C@@H](N)[C@H]1CC[C@H](C(=O)Nc2ccncc2)CC1 [Y] | 29 | 5 | 8.00 ×10^4 cells | 87.25 ×10^4 cells | 245.39 ×10^4 cells | 391.09 ×10^4 cells | 733.30 ×10^4 cells | 756.21 ×10^4 cells | – | – | –
2 | Cc1cccc(-c2nn(C(=S)Nc3ccccc3)cc2-c2ccnc3ccccc23)n1 [A, 3-(6-methylpyridin-2-yl)-4-(4-quinolyl)-1-phenylthiocarbamoyl-1H-pyrazole] | 30 | 4 | 8.00 ×10^4 cells | 55.75 ×10^4 cells | – | – | – | – | 264.81 ×10^4 cells | 595.83 ×10^4 cells | 1005.46 ×10^4 cells

— US20240360409A1, “METHOD FOR PRODUCING HIGHLY PROLIFERATIVE CELL, AND HIGHLY PROLIFERATIVE CELL AND USE THEREOF” (TOKYO MEDICAL UNIVERSITY, priority 2021, published 2024)
